Test results reported in PubChem BioAssay AID328 (DTP/NCI, 2004).
Values joined by “and” are separate entries in the source; they are usually repeats but may differ in a detail not shown here. Identical values can stand only once. Toxic doses and inconclusive results are not listed.

System: BDF1 mice, P388 leukemia ip, median survival T/C
Assay: NCI In Vivo Anticancer Drug Screen. Data for tumor model P388 Leukemia (intraperitoneal) in B6D2F1 (BDF1) mice
Conditions: endpoint: median survival time, higher = longer survival
In short: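 Mice carrying the transplantable tumour receive compound or vehicle. Survival is followed in each arm, and the treated measure is divided by the vehicle measure.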

[1] = dose: 50.0 mg/kg/injection, schedule: Q01DX009 (ip), vehicle: saline with Tween-80
[2] = dose: 100.0 mg/kg/injection, schedule: Q01DX009 (ip), vehicle: saline with Tween-80
[3] = dose: 100.0 mg/kg/injection, schedule: Q04DX003 (ip), vehicle: saline with Tween-80
[4] = dose: 200.0 mg/kg/injection, schedule: Q04DX003 (ip), vehicle: saline with Tween-80
[5] = dose: 100.0 mg/kg/injection, schedule: Q01DX009 (ip), vehicle: Klucel (hydroxypropylcellulose) (HPC)
[6] = dose: 200.0 mg/kg/injection, schedule: Q01DX009 (ip), vehicle: Klucel (hydroxypropylcellulose) (HPC)
[7] = dose: 400.0 mg/kg/injection, schedule: Q01DX009 (ip), vehicle: Klucel (hydroxypropylcellulose) (HPC)
[8] = dose: 12.5 mg/kg/injection, schedule: Q01DX009 (ip), vehicle: saline
[9] = dose: 25.0 mg/kg/injection, schedule: Q01DX009 (ip), vehicle: saline
[10] = dose: 50.0 mg/kg/injection, schedule: Q01DX009 (ip), vehicle: saline
[11] = dose: 100.0 mg/kg/injection, schedule: Q04DX003 (ip), vehicle: saline
[12] = dose: 400.0 mg/kg/injection, schedule: Q04DX003 (ip), vehicle: saline with Tween-80
[13] = dose: 150.0 mg/kg/injection, schedule: Q01DX009 (ip), vehicle: saline with Tween-80
[14] = dose: 100.0 mg/kg/injection, schedule: Q01DX001 (ip), vehicle: Klucel (hydroxypropylcellulose) (HPC)
[15] = dose: 200.0 mg/kg/injection, schedule: Q01DX001 (ip), vehicle: Klucel (hydroxypropylcellulose) (HPC)
[16] = dose: 400.0 mg/kg/injection, schedule: Q01DX001 (ip), vehicle: Klucel (hydroxypropylcellulose) (HPC)

Cc1ccc([N+](=O)[O-])cc1NC(=O)Oc1ccccc1
T/C (dose: 100.0 mg/kg/injection, schedule: Q04DX003 (ip), vehicle: other): 92 % of control | T/C (dose: 200.0 mg/kg/injection, schedule: Q04DX003 (ip), vehicle: other): 96 % of control | T/C (dose: 400.0 mg/kg/injection, schedule: Q04DX003 (ip), vehicle: other): 96 % of control

Clc1ccc2nnnn2n1
T/C (dose: 16.25 mg/kg/injection, schedule: Q01DX009 (ip), vehicle: saline with Tween-80): 99 % of control | T/C (dose: 32.5 mg/kg/injection, schedule: Q01DX009 (ip), vehicle: saline with Tween-80): 101 % of control | T/C (dose: 40.0 mg/kg/injection, schedule: Q01DX009 (ip), vehicle: saline with Tween-80): 97 % of control | T/C (dose: 80.0 mg/kg/injection, schedule: Q01DX009 (ip), vehicle: saline with Tween-80): 111 % of control | T/C (dose: 130.0 mg/kg/injection, schedule: Q01DX009 (ip), vehicle: saline with Tween-80): 151 % of control

O=S(=O)(CCBr)CCBr
T/C [1]: 100 % of control | T/C [2]: 104 % of control | T/C [3]: 100 % of control | T/C [4]: 100 % of control

Cn1cnc2c1c(=O)[nH]c(=O)n2C
T/C [5]: 109 % of control | T/C [6]: 104 % of control | T/C [7]: 97 % of control

COc1cc2c(cc1OC)CC[N+](C)=C2
T/C (dose: 3.12 mg/kg/injection, schedule: Q01DX009 (ip), vehicle: saline): 102 % of control | T/C (dose: 3.12 mg/kg/injection, schedule: Q04DX003 (ip), vehicle: saline): 104 % of control | T/C (dose: 6.25 mg/kg/injection, schedule: Q01DX009 (ip), vehicle: saline): 105 % of control | T/C (dose: 6.25 mg/kg/injection, schedule: Q04DX003 (ip), vehicle: saline): 97 % of control and 122 % of control | T/C [8]: 102 % of control | T/C (dose: 12.5 mg/kg/injection, schedule: Q04DX003 (ip), vehicle: saline): 95 % of control and 97 % of control | T/C [9]: 102 % of control | T/C (dose: 25.0 mg/kg/injection, schedule: Q04DX003 (ip), vehicle: saline): 91 % of control | T/C [10]: 91 % of control | T/C (dose: 50.0 mg/kg/injection, schedule: Q04DX003 (ip), vehicle: saline): 121 % of control | T/C [11]: 100 % of control

O=Cc1ccc(OC(=O)Nc2ccccc2)cc1
T/C [3]: 113 % of control | T/C [4]: 122 % of control | T/C [12]: 86 % of control

C1CC[N+]2(CC1)CCC2
T/C [9]: 113 % of control | T/C [10]: 109 % of control | T/C (dose: 100.0 mg/kg/injection, schedule: Q01DX009 (ip), vehicle: saline): 100 % of control

c1cc[c]([Sn]([c]2ccccc2)([c]2ccccc2)[n]2cncn2)cc1
T/C (dose: 3.12 mg/kg/injection, schedule: Q01DX009 (ip), vehicle: saline with Tween-80): 106 % of control | T/C (dose: 6.25 mg/kg/injection, schedule: Q01DX009 (ip), vehicle: saline with Tween-80): 106 % of control

Cc1nc(Cl)c2cnccn12
T/C [8]: 100 % of control | T/C [9]: 95 % of control | T/C [10]: 86 % of control

CC1=Nc2ccccc2N=C(C)C1
T/C (dose: 25.0 mg/kg/injection, schedule: Q01DX009 (ip), vehicle: saline with Tween-80): 100 % of control | T/C (dose: 50.0 mg/kg/injection, schedule: Q01DX001 (ip), vehicle: saline with Tween-80): 100 % of control | T/C [1]: 90 % of control | T/C (dose: 100.0 mg/kg/injection, schedule: Q01DX001 (ip), vehicle: saline with Tween-80): 104 % of control | T/C [2]: 109 % of control | T/C [3]: 100 % of control | T/C [13]: 100 % of control | T/C (dose: 200.0 mg/kg/injection, schedule: Q01DX001 (ip), vehicle: saline with Tween-80): 100 % of control | T/C [4]: 100 % of control

CC(C)CCOC(=O)C(Br)c1ccccc1 (centres undefined)
T/C (dose: 44.0 mg/kg/injection, schedule: Q01DX009 (ip), vehicle: saline with Tween-80): 110 % of control | T/C (dose: 66.0 mg/kg/injection, schedule: Q01DX009 (ip), vehicle: saline with Tween-80): 107 % of control | T/C [3]: 108 % of control | T/C [13]: 115 % of control | T/C [4]: 116 % of control | T/C [12]: 104 % of control

CC1(C)CC2C(=O)c3ccccc3NC2c2ccccc21 (centres undefined)
T/C [5]: 87 % of control | T/C (dose: 100.0 mg/kg/injection, schedule: Q04DX003 (ip), vehicle: Klucel (hydroxypropylcellulose) (HPC)): 112 % of control | T/C [6]: 108 % of control | T/C (dose: 200.0 mg/kg/injection, schedule: Q04DX003 (ip), vehicle: Klucel (hydroxypropylcellulose) (HPC)): 104 % of control | T/C (dose: 400.0 mg/kg/injection, schedule: Q04DX003 (ip), vehicle: Klucel (hydroxypropylcellulose) (HPC)): 108 % of control

CCCCCCC(=O)/C=C/c1ccc(Cl)cc1
T/C [2]: 90 % of control | T/C (dose: 200.0 mg/kg/injection, schedule: Q01DX009 (ip), vehicle: saline with Tween-80): 91 % of control | T/C (dose: 400.0 mg/kg/injection, schedule: Q01DX009 (ip), vehicle: saline with Tween-80): 100 % of control

O=Cc1c[nH]c(=O)[nH]c1=O
T/C [11]: 91 % of control | T/C (dose: 200.0 mg/kg/injection, schedule: Q04DX003 (ip), vehicle: saline): 99 % of control | T/C (dose: 400.0 mg/kg/injection, schedule: Q04DX003 (ip), vehicle: saline): 88 % of control

Nc1n[nH]c(=S)n1-c1ccccc1
T/C [14]: 104 % of control | T/C [5]: 95 % of control | T/C [15]: 95 % of control | T/C [6]: 91 % of control | T/C [16]: 90 % of control | T/C [7]: 104 % of control

CS(=O)(=O)Nc1ccc(NS(C)(=O)=O)c(SCc2ccccc2)c1
T/C [14]: 100 % of control | T/C [15]: 100 % of control | T/C [16]: 100 % of control

COc1cccc2c1C(=O)c1c(O)c3c(c(O)c1C2=O)CC(O)(C(C)=O)CC3OC1CC(N)C(O)C(C)O1 (centres undefined)
T/C (dose: 0.03 mg/kg/injection, schedule: Q01DX010 (ip), vehicle: saline): 118 % of control | T/C (dose: 0.06 mg/kg/injection, schedule: Q01DX010 (ip), vehicle: saline): 118 % of control | T/C (dose: 0.12 mg/kg/injection, schedule: Q01DX010 (ip), vehicle: saline): 118 % of control | T/C (dose: 0.25 mg/kg/injection, schedule: Q01DX009 (ip), vehicle: water): 160 % of control | T/C (dose: 0.25 mg/kg/injection, schedule: Q01DX010 (ip), vehicle: saline): 165 % of control and 175 % of control | T/C (dose: 0.5 mg/kg/injection, schedule: Q01DX009 (ip), vehicle: water): 173 % of control | T/C (dose: 0.5 mg/kg/injection, schedule: Q01DX010 (ip), vehicle: saline): 180 % of control and 195 % of control | T/C (dose: 1.0 mg/kg/injection, schedule: Q01DX009 (ip), vehicle: water): 182 % of control | T/C (dose: 1.0 mg/kg/injection, schedule: Q01DX010 (ip), vehicle: saline): 230 % of control and 200 % of control | T/C (dose: 2.0 mg/kg/injection, schedule: Q01DX009 (ip), vehicle: water): 210 % of control | T/C (dose: 2.0 mg/kg/injection, schedule: Q01DX010 (ip), vehicle: saline): 155 % of control and 190 % of control and 220 % of control | T/C (dose: 4.0 mg/kg/injection, schedule: Q01DX009 (ip), vehicle: water): 157 % of control | T/C (dose: 4.0 mg/kg/injection, schedule: Q01DX010 (ip), vehicle: saline): 180 % of control | T/C (dose: 7.5 mg/kg/injection, schedule: Q04DX003 (ip), vehicle: water): 104 % of control | T/C (dose: 8.0 mg/kg/injection, schedule: Q01DX001 (ip), vehicle: saline): 150 % of control | T/C (dose: 8.0 mg/kg/injection, schedule: Q01DX010 (ip), vehicle: saline): 90 % of control and 95 % of control | T/C (dose: 15.0 mg/kg/injection, schedule: Q04DX003 (ip), vehicle: water): 119 % of control | T/C (dose: 16.0 mg/kg/injection, schedule: Q01DX001 (ip), vehicle: saline): 90 % of control | T/C (dose: 60.0 mg/kg/injection, schedule: Q04DX003 (ip), vehicle: water): 167 % of control | T/C (dose: 240.0 mg/kg/injection, schedule: Q04DX003 (ip), vehicle: water): 93 % of control | T/C (dose: 125.0 micrograms/kg/injection, schedule: Q01DX010 (ip), vehicle: saline): 154 % of control | T/C (dose: 250.0 micrograms/kg/injection, schedule: Q01DX010 (ip), vehicle: saline): 159 % of control
